# Results from paper PMC3743129 (ACS medicinal chemistry letters, 2013).
# Marks after values point to notes of the source that are not given here.
# Legend:
# MeV-Edm = experiment: microbe, parasite or virus in culture; assay type: cell-based; settings: Measles morbillivirus, read-out: EC50 against MeV strain Edmonston
# [1] = assay type: in vitro ADME
# in vitro = in vitro ADME
# [2] = system: a number of different viruses; settings: cited from earlier work
compound,measurement,setting,value
CN(Cc1nc(-c2ccccc2)c(-c2ccccc2)n1C)c1ccccc1 [Compound 28a],EC50,MeV-Edm,810 nM
C#CCn1c([S+](=O)([O-])Cc2ccc(F)cc2)nc(-c2ccccc2)c1-c1ccccc1 [Compound 3],S9 stability T1/2 hamster,[1],<2.5 min
Cn1c(S(=O)(=O)Cc2ccccc2)nc(-c2ccccc2)c1-c1ccccc1 [Compound 13b],S9 stability T1/2 hamster,[1],<2.5^b min
same,"metabolite peak in LC-MS, % of total area","in vitro; human, 20 min, 100 μM",91%
same,half-life,"in vitro; human, s9",2 to 12 min
same,S9 stability T1/2 human,in vitro; s9,2-12^b min
Cn1c(S(=O)(=O)Cc2ccc(F)cc2)nc(-c2ccc(F)cc2)c1-c1ccc(F)cc1 [Compound 13c],S9 stability T1/2 hamster,[1],<2.5^b min
O=S(=O)(Cc1ccccc1)c1nc(-c2ccccc2)c(-c2ccccc2)[nH]1 [Compound 13a],S9 stability T1/2 hamster,[1],<2.5 min
COc1ccc(-n2c(SC(C)C(=O)Nc3ccc(C)cc3Cl)nc3ccccc32)cc1 (stereo not drawn) [Compound 1],activity against a number of different viruses in cell culture,[2],low nanomolar activity
